Data from patent publication US20100143897A1, “Materials and Methods for Assaying for Glyoxylate” (University of South Florida, priority 2005, published 2010).

Test system: peptidylglycine α-amidating monooxygenase (PAM)
Assay: PAM treatment of hippurate: benzamide by HPLC, glyoxylate by malate synthase/malate dehydrogenase/MTS/PMS system
Type: biochemical
Conditions: PAM added to hippurate
Description: Spectrophotometric enzyme-linked assays for glyoxylate were initiated by the addition of malate synthase and malate dehydrogenase. […] The absorbance at 490 nm was measured after one hour incubation at 37° C. in the dark. The small amount of MTS reduced for the zero glyoxylate control was subtracted from that obtained in the presence of glyoxylate. Hippurate (N-benzoylglycine, C6H5—CO—NH—CH2—COO^−) is a PAM substrate that is oxidatively converted to benzamide and glyoxylate. […] At 10 min intervals over a period of 110 minutes, 45 μl aliquots were removed and added to 10 μl of 6% (v/v) trifluoroacetic acid to terminate the reaction. Percent conversion of hippurate to benzamide was determined at each time interval by reverse-phase HPLC. […] Following ascorbate removal the addition of 100 ul enzyme couple and PMS/MTS brought the assay to a final volume of 1 ml which contained 100 mM TEA-HCl pH 7.8, 10 mM MgCl2, 400 μM acetyl-CoA, 500 μM NAD^+, 6 U/ml malate synthase, 6 U/ml malate dehydrogenase, and 12 units ascorbate oxidase. […] A control for this experiment was performed at each time point, and contained no hippurate.

Benzamide Produced (Time 40): 0.58 mM
Glyoxylate Produced (Time 40): 0.69 mM
Benzamide Produced (Time 50): 0.70 mM
Glyoxylate Produced (Time 50): 0.67 mM
Benzamide Produced (Time 60): 0.80 mM
Glyoxylate Produced (Time 60): 0.71 mM
Benzamide Produced (Time 70): 0.90 mM
Glyoxylate Produced (Time 70): 0.75 mM
Benzamide Produced (Time 80): 0.98 mM
Glyoxylate Produced (Time 80): 0.77 mM
Benzamide Produced (Time 90): 1.1 mM
Glyoxylate Produced (Time 90): 1.3 mM
Benzamide Produced (Time 100): 1.2 mM
Glyoxylate Produced (Time 100): 1.3 mM
Benzamide Produced (Time 110): 1.3 mM
Glyoxylate Produced (Time 110): 1.3 mM
Compound: O=C(O)CNC(=O)c1ccccc1 [Hippurate, N-benzoylglycine]
